The text below walks through data of patent US20160193216A1 (Nimbus Iris, Inc., priority 2012, published 2016).

Molecules are shown by their SMILES. Read-outs that look alike come from different tables or passages of the source.

For test [1], the system named is collagen-induced arthritis. Briefly: In vivo murine collagen-induced arthritis model. The following applies: DBA mice, vs vehicle. On the procedure: In Vivo Murine Collagen-Induced Arthritis Model Compounds of the present invention were also evaluated in mice in an in vivo efficacy model for inhibiting IRAK4-mediated arthritis. An exemplary protocol for this assay follows. Male DBA mice were immunized with collagen on day 0 and day 21 and randomly enrolled into groups upon onset of disease. […] Eight mice were enrolled per group with the exception of the naïve control group, which contained four mice. Day 1 was designated as the first treatment day, and mice were evaluated daily for clinical scores until day 11. The mice were weighed on alternating days.

The next test relates to ABC DLBCL cell lines. Kind of test: Cell viability assay, combination with ibrutinib. It counts as cell-based. The method, then: Compounds of the present invention were also evaluated in a cell viability assay.
The next test relates to GCB DLBCL Cells. Kind of test: sensitization of GCB DLBCL cells by BTK knockdown. It counts as cell-based. The following applies: BTK knockdown (FIG. 10).
The subject of the next test is Whole Blood. Kind of test: In vitro LPS/R848-induced cytokine production assay in whole blood. The format is cell-based, human. The following applies: Homo sapiens. On the procedure:
(§1) In Vitro LPS/R848/CpG-Induced Cytokine Production Assays in hPBMC or Whole Blood
(§2) Compounds of the present invention were also studied in in vitro LPS/R848/CpG-induced cytokine production assays. Exemplary protocols follow.
(§3) […] Cells were seeded in a 96-well plate with 130 ul/well of the cell suspension according to the plate map. 9 ul of 30 mM compound solution was added into the wells in the assigned rows, then serial solutions with 4× dilutions were made. That is, add 9 uL of 100% DMSO into each of the rest wells and take 3 uL of compound solution from the one-step higher concentration solution and mix well with the DMSO. For the second compound master plate, 196 uL of the growth medium (no serum media) were added into each of the wells and 4 uL of the compound solution from the first compound master plate was added and mixed with the media. Cells were treated for 0.5 h by adding 20 uL of the compound and the control solutions prepared in the second master plate to each well according to the plate map. […] Plates were sealed with sealing films and the plates were centrifuged at 3000 rpm at 4 degrees C. for 5 min. The supernatants were transferred, and 100 ul of working Capture antibody solution was added to each well. The plates were sealed and incubated overnight at RT. IL-6, IFN-α or TNF-α detection antibody labeled with biotin: Added 100 uL of the Detection Antibody solution to each well. Covered the plate and incubated for 2 h at RT. Added 100 uL of Streptavidin-HRP solution to each well. Covered the plate and incubate for 20 min at RT in dark. Added 100 uL of Substrate Solution to each well. Incubated for 20 min at RT in dark. Added 50 uL of Stop Solution to each well. Gently tapped the plate to ensure thorough mixing. Determined the optical density of each well immediately, using a microplate reader set to 450 nm and also read at 540 nm or 570 nm for correction if wavelength correction is not available.

The test system of the next test is ABC DLBCL Cells. Kind of test: sensitization of ABC DLBCL cells to IRAK inhibitors by BTK knockdown. The following applies: BTK knockdown (FIG. 9). The format is cell-based. The text has this:
FIG. 8 depicts the sensitization of ABC DLBCL Cells to IRAK Inhibitors by BTK knockdown.

Another test has as its system THP-1 cells. Briefly: LPS induced cytokine (TNFα and IL8) production assay in THP-1 cells. The format is cell-based. The following applies: Homo sapiens, 300 ng/mL LPS. A digest of the protocol:
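THP-1 cells (100,000/well) pre-incubated 1 hour with compound in 0.3% DMSO, then stimulated with 300 ng/mL LPS. TNFα and IL8 in supernatant measured by HTRF at 5 hours; IL8 and viability also at 16 hours.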

A further test has as its system hPBMC. Kind of test: In vitro LPS/R848/CpG/IL-1β-induced cytokine production assay in hPBMC. It counts as cell-based. The following applies: Homo sapiens. The method, then:
as §1, §2, §3

The mark [2] stands for this setting: R848 1 uM, read-out: TNF-α production IC50.

Regarding `NC(=O)C[C@H]1CCc2sc3ncnc(O[C@H]4CC[C@H](N5CCOCC5)CC4)c3c21` [Compound I-67, 2-((R)-4-(((1r,4R)-4-morpholinocyclohexyl)oxy)-6,7-dihydro-5H-cyclopenta[4,5]thieno[2,3-d]pyrimidin-5-yl)acetamide], the “Clinical scores, collagen-induced arthritis” value in test [1] (intraperitoneally 30 mg/kg twice a day) and in test [1] (orally 30 mg/kg twice a day) was “efficacious compared to the vehicle” each time. Further, the “Killing of ABC DLBCL cells in combination with ibrutinib” value with ABC DLBCL cell lines is given as “Synergistic killing”. Moreover, the “sensitization of GCB DLBCL Cells to compound by BTK Knockdown” value in the test on GCB DLBCL Cells is reported as “lack of sensitization”. Further, the IC50 (in general, the concentration that inhibits the measured activity by half) with Whole Blood (LPS 0.1 ug/mL, read-out: IL-6 production IC50) was no more than 0.25 µM; in the test on Whole Blood (R848 1 uM, read-out: IFN-α production IC50) it was no less than 1 µM; in the test on Whole Blood (setting [2]) it was 0.5 to 1 µM; in the test on THP-1 cells (read-out: IL8 production IC50), no more than 0.5 µM; in the test on THP-1 cells (read-out: TNFα production IC50), 0.5 to 1 µM; in the test on hPBMC (CpG 0.1 uM, read-out: IFN-α production IC50), 0.5 to 1 µM. Further, the IC50 was 0.25 to 0.5 µM in the test with hPBMC (CpG 0.5 uM, read-out: TNF-α production IC50); 0.25 to 0.5 µM with hPBMC (IL-1β 1 ng/mL, read-out: IL-6 production IC50); no more than 0.25 µM with hPBMC (LPS 0.01 ug/mL, read-out: IL-6 production IC50); 0.25 to 0.5 µM with hPBMC (LPS 0.01 ug/mL, read-out: TNF-α production IC50); 0.5 to 1 µM in the test with hPBMC (setting [2]). In the test on ABC DLBCL Cells, the “sensitization of ABC DLBCL Cells to compound by BTK knockdown” value is recorded as “sensitization”.
